{"source": "paper PMC8296708", "about": "“The pan HDAC inhibitor Givinostat improves muscle function and histological parameters in two Duchenne muscular dystrophy murine models expressing different haplotypes of the LTBP4 gene” (Skeletal Muscle, 2021)", "system": "D2.B10 mice", "experiment": "Histopathological evaluation of severity of myodystrophy in D2.B10 mice", "assay_type": "in vivo, mouse (D2.B10-Dmd^mdx/J)", "conditions": "T8 and T16", "procedure": "In these experiments, the histopathological evaluation of muscle inflammatory infiltrate, adipose tissue deposition, regeneration, and degeneration of the muscular tissue was also performed. The severity of myodystrophy in the different muscles (TA, GAS and DIA) was quantified through a weighted histopathological method that considered some parameters scored by severity and extension of the injury: muscle degeneration/necrosis, regeneration, inflammatory infiltrate, interstitial reaction, and adipose tissue deposition. Each parameter was classified by severity (mild = 1, moderate = 2, and severe = 3) and extension (focal = 1, multifocal = 2, and diffuse = 3). The individual severity score was calculated for each animal and an average score per group was calculated.", "data": [{"smiles": "CCN(CC)Cc1ccc2cc(COC(=O)Nc3ccc(C(=O)NO)cc3)ccc2c1", "note": "[Givinostat]", "values": [{"measurement": "Histological evaluation of inflammatory infiltrate, adipose tissue deposition, regeneration, degeneration", "result": "not significantly different among the treatment groups"}]}]}
